Assay results: US8563714B2, “Bridged spiro [2.4] heptane derivatives as ALX receptor and/or FPRL2 agonists” (Actelion Pharmaceuticals Ltd., priority 2009, dated 2013)

How the values were obtained:
human ALX receptor = target: T1, human ALX receptor (Homo sapiens, UniProt P25090); experiment: Intracellular calcium measurements (FLIPR), agonistic activity in HEK293-hALXR-Gα16 cells; format: cell-based; conditions: Fluo-4 calcium FLIPR, normalized to WKYMVm 10 nM
T1 construct: expressed in transfected cells; host or cells: HEK293 (HEK293-hALXR-Gα16)
T1 sequence (P25090 1-351): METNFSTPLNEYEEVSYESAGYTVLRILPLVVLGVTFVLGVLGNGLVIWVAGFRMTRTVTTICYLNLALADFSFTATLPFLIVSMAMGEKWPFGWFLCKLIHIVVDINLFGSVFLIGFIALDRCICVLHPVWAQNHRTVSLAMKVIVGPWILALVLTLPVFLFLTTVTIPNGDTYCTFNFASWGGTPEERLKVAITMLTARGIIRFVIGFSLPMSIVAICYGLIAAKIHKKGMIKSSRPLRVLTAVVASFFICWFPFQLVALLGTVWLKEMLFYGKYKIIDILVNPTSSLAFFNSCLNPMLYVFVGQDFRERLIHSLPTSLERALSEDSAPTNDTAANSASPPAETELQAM
Outline: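 Agonist-induced calcium flux was recorded by FLIPR (488/540 nm) in HEK293-hALXR-Gα16 cells pre-loaded with Fluo-4 AM (1 μM, 60 min, 37°C). Peak signal above baseline, after subtracting buffer addition, was expressed relative to WKYMVm at 10 nM final.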

human FPRL2 = target: T2, human FPRL2 (Homo sapiens, UniProt P25089); experiment: Intracellular calcium measurements (FLIPR), agonistic activity in HEK293-hFPRL2-Gα16 cells; format: cell-based; conditions: Fluo-4 calcium FLIPR, normalized to GLY14-Humanin 100 nM
T2 construct: expressed in transfected cells; host or cells: HEK293 (HEK293-hFPRL2-Gα16)
T2 sequence (P25089 1-353): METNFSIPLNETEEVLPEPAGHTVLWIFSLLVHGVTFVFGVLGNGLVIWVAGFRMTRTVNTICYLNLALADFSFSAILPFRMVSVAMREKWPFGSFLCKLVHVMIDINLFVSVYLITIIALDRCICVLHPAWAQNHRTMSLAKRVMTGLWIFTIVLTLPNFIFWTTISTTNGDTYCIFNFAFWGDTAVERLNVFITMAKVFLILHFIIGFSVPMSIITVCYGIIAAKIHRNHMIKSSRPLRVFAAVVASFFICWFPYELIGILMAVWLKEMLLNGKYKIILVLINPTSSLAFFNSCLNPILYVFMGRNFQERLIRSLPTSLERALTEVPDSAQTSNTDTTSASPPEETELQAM
Outline: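 Peak values after baseline subtraction are expressed relative to 100 nM Gly14-Humanin; compounds diluted in assay buffer from 10 mM DMSO stocks.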

EC50 (human ALX receptor)	EC50 (human FPRL2)	SMILES
> 25000 nM	204 nM	COc1ccccc1CCNC(=O)[C@H]1[C@H](C(=O)NCCCCN2CCCC2)[C@H]2C=C[C@@H]1C21CC1 (racemic) [Example 158, (5R*)—N^5-(2-(2-Methoxy-phenyl)-ethyl)-(6R*)—N^6-(4-pyrrolidin-1-yl-butyl)-(4S*,7R*)-[4,7-ethenylene-spiro[2.4]heptane]-5,6-dicarboxamide]
47 nM	7920 nM	O=C(CCCN1CCCC1=O)NC[C@H]1[C@H](C(=O)Nc2ccc(Br)cc2)[C@@H]2C=C[C@H]1C21CC1 (racemic) [Example 161, (5R*)—N^5-(4-Bromo-phenyl)-(6R*)-6-[(4-(2-oxo-pyrrolidin-1-yl)-butyrylamino)-methyl]-(4S*,7R*)-[4,7-ethenylene-spiro[2.4]heptane]-5-carboxamide]
61 nM	1730 nM	O=C(Cc1ccccc1Cl)NC[C@H]1[C@H](C(=O)Nc2ccc(Br)cc2)[C@@H]2C=C[C@H]1C21CC1 (racemic) [Example 162, (5R*)—N^5-(4-Bromo-phenyl)-(6R*)-6-[(2-(2-chloro-phenyl)-acetylamino)-methyl]-(4S*,7R*)-[4,7-ethenylene-spiro[2.4]heptane]-5-carboxamide]
72 nM	5680 nM	COCCC(=O)NC[C@H]1[C@H](C(=O)Nc2ccc(Br)cc2)[C@@H]2C=C[C@H]1C21CC1 (racemic) [Example 163, (5R*)—N^5-(4-Bromo-phenyl)-(6R*)-6-[(3-methoxy-propionylamino)-methyl]-(4S*,7R*)-[4,7-ethenylene-spiro[2.4]heptane]-5-carboxamide]
80 nM	6820 nM	CN(C)C(=O)CCC(=O)NC[C@H]1[C@H](C(=O)Nc2ccc(Br)cc2)[C@@H]2C=C[C@H]1C21CC1 (racemic) [Example 164, (5R*)—N^5-(4-Bromo-phenyl)-(6R*)-6-[(3-(N,N-dimethyl-aminocarbonyl)-propionyl-amino)-methyl]-(4S*,7R*)-[4,7-ethenylene-spiro[2.4]heptane]-5-carboxamide]
88 nM	4710 nM	COC(=O)CCCC(=O)NC[C@H]1[C@H](C(=O)Nc2ccc(Br)cc2)[C@@H]2C=C[C@H]1C21CC1 (racemic) [Example 166, (5R*)—N^5-(4-Bromo-phenyl)-(6R*)-6-{[(4-methoxycarbonyl-butanoyl)-amino]-methyl}-(4S*,7R*)-[4,7-ethenylene-spiro[2.4]heptane]-5-carboxamide]
103 nM	3690 nM	CCCCC(=O)NC[C@H]1[C@H](C(=O)Nc2ccc(Br)cc2)[C@@H]2C=C[C@H]1C21CC1 (racemic) [Example 167, (5R*)—N^5-(4-Bromo-phenyl)-(6R*)-6-(pentanoylamino-methyl)-(4S*,7R*)-[4,7-ethenylene-spiro[2.4]heptane]-5-carboxamide]
71 nM	862 nM	Cc1nc(CC(=O)NC[C@H]2[C@H](C(=O)Nc3ccc(Br)cc3)[C@@H]3C=C[C@H]2C32CC2)c(C)s1 (racemic) [Example 168, (5R*)—N^5-(4-Bromo-phenyl)-(6R*)-6-[(2-(2,5-dimethyl-thiazol-4-yl)-acetylamino)-methyl]-(4S*,7R*)-[4,7-ethenylene-spiro[2.4]heptane]-5-carboxamide]
112 nM	1790 nM	O=C(NC[C@H]1[C@H](C(=O)Nc2ccc(Br)cc2)[C@@H]2C=C[C@H]1C21CC1)c1ccnn1-c1ccccc1 (racemic) [Example 169, (5R*)—N^5-(4-Bromo-phenyl)-(6R*)-6-{[(1-phenyl-1H-pyrazole-5-carbonyl)-amino]-methyl}-(4S*,7R*)-[4,7-ethenylene-spiro[2.4]heptane]-5-carboxamide]
114 nM	> 25000 nM	NC(=O)CCC(=O)NC[C@H]1[C@H](C(=O)Nc2ccc(Br)cc2)[C@@H]2C=C[C@H]1C21CC1 (racemic) [Example 170, (5R*)—N^5-(4-Bromo-phenyl)-(6R*)-6-{[(3-aminocarbonyl-propionyl)-amino]-methyl}-(4S*,7R*)-[4,7-ethenylene-spiro[2.4]heptane]-5-carboxamide]
118 nM	3220 nM	Cc1ccncc1C(=O)NC[C@H]1[C@H](C(=O)Nc2ccc(Br)cc2)[C@@H]2C=C[C@H]1C21CC1 (racemic) [Example 171, (5R*)—N^5-(4-Bromo-phenyl)-(6R*)-6-{[(4-methyl-pyridine-3-carbonyl)-amino]-methyl}-(4S*,7R*)-[4,7-ethenylene-spiro[2.4]heptane]-5-carboxamide]
125 nM	4610 nM	CC(C)C(=O)NC[C@H]1[C@H](C(=O)Nc2ccc(Br)cc2)[C@@H]2C=C[C@H]1C21CC1 (racemic) [Example 172, (5R*)—N^5-(4-Bromo-phenyl)-(6R*)-6-[(isobutyrylamino)-methyl]-(4S*,7R*)-[4,7-ethenylene-spiro[2.4]heptane]-5-carboxamide]
131 nM	1820 nM	CCN1CCC(C(=O)NC[C@H]2[C@H](C(=O)Nc3ccc(Br)cc3)[C@@H]3C=C[C@H]2C32CC2)CC1 (racemic) [Example 173, (5R*)—N^5-(4-Bromo-phenyl)-(6R*)-6-{[(N-ethyl-piperidine-4-carbonyl)-amino]-methyl}-(4S*,7R*)-[4,7-ethenylene-spiro[2.4]heptane]-5-carboxamide]
136 nM	4810 nM	O=C(CCc1cccnc1)NC[C@H]1[C@H](C(=O)Nc2ccc(Br)cc2)[C@@H]2C=C[C@H]1C21CC1 (racemic) [Example 174, (5R*)—N^5-(4-Bromo-phenyl)-(6R*)-6-[(3-pyridin-3-yl-propionylamino)-methyl]-(4S*,7R*)-[4,7-ethenylene-spiro[2.4]heptane]-5-carboxamide]
155 nM	7210 nM	COCCC(=O)N(C)C[C@H]1[C@H](C(=O)Nc2ccc(Br)cc2)[C@@H]2C=C[C@H]1C21CC1 (racemic) [Example 175, (5R*)—N^5-(4-Bromo-phenyl)-(6R*)-6-{[N-(3-methoxy-propionyl)-N-methyl-amino]-methyl}-(4S*,7R*)-[4,7-ethenylene-spiro[2.4]heptane]-5-carboxamide]
158 nM	2230 nM	O=C(NC[C@H]1[C@H](C(=O)Nc2ccc(Br)cc2)[C@@H]2C=C[C@H]1C21CC1)c1cccc(F)c1Cl (racemic) [Example 176, (5R*)—N^5-(4-Bromo-phenyl)-(6R*)-6-{[(2-chloro-3-fluoro-phenyl-carbonyl)-amino]-methyl}-(4S*,7R*)-[4,7-ethenylene-spiro[2.4]heptane]-5-carboxamide]
160 nM	446 nM	O=C(CCCN1CCCC1)NC[C@H]1[C@H](C(=O)Nc2ccc(Br)cc2)[C@@H]2C=C[C@H]1C21CC1 (racemic) [Example 177, (5R*)—N^5-(4-Bromo-phenyl)-(6R*)-6-[(4-pyrrolidin-1-yl-butanoylamino)-methyl]-(4S*,7R*)-[4,7-ethenylene-spiro[2.4]heptane]-5-carboxamide]
115 nM	4070 nM	Cc1cc(C(=O)NC[C@H]2[C@H](C(=O)Nc3ccc(Br)cc3)[C@@H]3C=C[C@H]2C32CC2)nn1C (racemic) [Example 178, (5R*)—N^5-(4-Bromo-phenyl)-(6R*)-6-{[(1,5-dimethyl-1H-pyrazole-3-carbonyl)-amino]-methyl}-(4S*,7R*)-[4,7-ethenylene-spiro[2.4]heptane]-5-carboxamide]
200 nM	1380 nM	O=C(NC[C@H]1[C@H](C(=O)Nc2ccc(Br)cc2)[C@@H]2C=C[C@H]1C21CC1)C1CCCC1 (racemic) [Example 179, (5R*)—N^5-(4-Bromo-phenyl)-(6R*)-6-{[(cyclopentyl-carbonyl)-amino]-methyl}-(4S*,7R*)-[4,7-ethenylene-spiro[2.4]heptane]-5-carboxamide]
252 nM	888 nM	Cc1nc(CC(=O)NC[C@H]2[C@H](C(=O)Nc3ccc(Br)cc3)[C@@H]3C=C[C@H]2C32CC2)cs1 (racemic) [Example 180, (5R*)—N^5-(4-Bromo-phenyl)-(6R*)-6-[(2-(2-methyl-thiazol-4-yl)-acetylamino)-methyl]-(4S*,7R*)-[4,7-ethenylene-spiro[2.4]heptane]-5-carboxamide]
